Patent US8629159B2, “Thiazolidinedione analogues” (Metabolic Solutions Development Company, LLC, priority 2006, dated 2014)
Marks after values point to notes of the source that are not given here. Each block holds one compound with its values, some of them ahead of it.

Tests used:
[1] = tested on: Male Dahl salt-sensitive rats; assay: Antihypertensive action in hypertensive Dahl salt-sensitive rats (high salt diet), mean blood pressure by direct femoral arterial cannulation; assay type: in vivo, rat
Procedure: Male Dahl salt-sensitive rats were made hypertensive by feeding of a high salt diet (4% salt) for 3 weeks and then treated daily with the indicated dose of hydrochlorothiazide (HCTZ), compound 1, or the combination of HCTZ and compound 1, as compared to the vehicle alone (1% carboxymethylcellulose/0.01% Tween 20) by oral gavage for 8 days. Mean blood pressure was measured by direct femoral arterial cannulation under fed conditions on day 7 and after a 6 hour fast on day 8.
Referring to FIG. 2 and Table C above, the antihypertensive action of compound 1 is additive with hydrocholothiazide (HCTZ). Data are mean and (SEM) mean blood pressure taken by direct cannulation. N=5; * p<0.05 less than blood pressure in HCTZ-treated rats.

[2] = tested on: Male salt-sensitive Dahl rats; assay: Fasting free fatty acids (FFA) and adiponectin in treated Dahl rats; assay type: in vivo, rat; conditions: 3 weeks treatment; 40 mg/kg compound 1, 20 mg/kg rosiglitazone
Procedure: Doses of these compounds were chosen to produce the same metabolic effects in terms of reduction of triglycerides and elevation of adiponectin (Table E). Direct blood pressure (systolic and diastolic) and heart rate was also measured by telemetry (Tables F—H and FIG. 4).

[3] = tested on: male Sprague-Dawley rats; assay: Prevention of Medrol-induced hypertension, mean blood pressure by direct femoral arterial cannulation; assay type: in vivo, rat; conditions: hypertension generated by treatment with a glucocorticoid
Procedure: Hypertension was induced in normal male Sprague-Dawley rats by daily dosing with the glucocorticoid methylprednisolone (Medrol) for 8 days. Separate groups of rats received the vehicle (1% carboxymethylcellulose/0.01% Tween 20) by oral gavage and some of both the vehicle-treated and Medrol-treated rats also received daily doses of compound 1 as shown in Table D below. Mean blood pressure was measured by direct femoral arterial cannulation under fed conditions on day 7 and after a 6 hour fast on day 8. The data are mean and (SEM) mean blood pressure obtained by direct cannulation. N=9; * p<0.05 less than blood pressure in Medrol-treated rats.

[4] = target: T1, PPARγ (Homo sapiens, UniProt P37231); assay: commercial PPARγ binding assay (Invitrogen; PPAR-LBD/Fluormone PPAR Green complex); conditions: for Binding to PPARγ (Fluormone displacement signal): mean of three experiments
T1 construct: purchased Invitrogen Corporation, Carlsbad, Calif
T1 sequence (P37231 238-503 limits assumed): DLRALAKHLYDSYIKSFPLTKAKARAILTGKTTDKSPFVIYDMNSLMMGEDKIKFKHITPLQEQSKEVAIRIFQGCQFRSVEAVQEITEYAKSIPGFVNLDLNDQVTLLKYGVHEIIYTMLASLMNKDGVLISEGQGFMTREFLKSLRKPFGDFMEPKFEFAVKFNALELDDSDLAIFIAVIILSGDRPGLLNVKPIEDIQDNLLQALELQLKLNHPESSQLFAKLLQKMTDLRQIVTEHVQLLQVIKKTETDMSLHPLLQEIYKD
Procedure: The ability of several exemplary compounds of the present invention, shown in Table A, to bind to PPARγ was measured using a commercial binding assay (Invitrogen Corporation, Carlsbad, Calif.) that measures the test compounds ability to bind with PPAR-LBD/Fluormone PPAR Green complex. These assays were performed on three occasions with each assay using four separate wells (quadruplicate) at each concentration of tested compound. The data are mean and SEM of the values obtained from the three experiments. […] Compounds were added at the concentrations shown, which range from 0.1-100 micromolar.

[5] = tested on: Male salt-sensitive Dahl rats; assay: Blood pressure (systolic and diastolic) and heart rate by telemetry in hypertensive Dahl rats; assay type: in vivo, rat; conditions: for Diastolic blood pressure measured by telemetry, Mean / Heart rate measured by telemetry, Mean / Systolic blood pressure measured by telemetry, Mean: 24 hour average
Procedure: Direct blood pressure (systolic and diastolic) and heart rate was also measured by telemetry (Tables F—H and FIG. 4). Data in Tables F—H and depicted in FIGS. 4A-4C are 24 hour averages for the last 4 days before the start of the daily oral gavage of treatments (−4, −3, −2, −1) and for the days 1-17 during the treatments shown.

[6] = day 1 of treatment, rosiglitazone 20 mg/kg, compound 1 40 mg/kg
[7] = day 2 of treatment, rosiglitazone 20 mg/kg, compound 1 40 mg/kg
[8] = day 3 of treatment, rosiglitazone 20 mg/kg, compound 1 40 mg/kg
[9] = day 4 of treatment, rosiglitazone 20 mg/kg, compound 1 40 mg/kg
[10] = day 5 of treatment, rosiglitazone 20 mg/kg, compound 1 40 mg/kg
[11] = day 6 of treatment, rosiglitazone 20 mg/kg, compound 1 40 mg/kg
[12] = day 7 of treatment, rosiglitazone 20 mg/kg, compound 1 40 mg/kg
[13] = day 8 of treatment, rosiglitazone 20 mg/kg, compound 1 40 mg/kg
[14] = day 9 of treatment, rosiglitazone 20 mg/kg, compound 1 40 mg/kg
[15] = day 10 of treatment, rosiglitazone 20 mg/kg, compound 1 40 mg/kg
[16] = day 11 of treatment, rosiglitazone 20 mg/kg, compound 1 40 mg/kg
[17] = day 12 of treatment, rosiglitazone 20 mg/kg, compound 1 40 mg/kg
[18] = day 13 of treatment, rosiglitazone 20 mg/kg, compound 1 40 mg/kg
[19] = day 14 of treatment, rosiglitazone 20 mg/kg, compound 1 40 mg/kg
[20] = day 15 of treatment, rosiglitazone 20 mg/kg, compound 1 40 mg/kg
[21] = day 16 of treatment, rosiglitazone 20 mg/kg, compound 1 40 mg/kg
[22] = day 17 of treatment, rosiglitazone 20 mg/kg, compound 1 40 mg/kg
[23] = day −1, before start of treatment
[24] = day −2, before start of treatment
[25] = day −3, before start of treatment
[26] = day −4, before start of treatment

Binding to PPARγ (Fluormone displacement signal) ([4]; 1 μM compound): 223
Binding to PPARγ (Fluormone displacement signal) ([4]; 3 μM compound): 228
Binding to PPARγ (Fluormone displacement signal) ([4]; 10 μM compound): 207
Binding to PPARγ (Fluormone displacement signal) ([4]; 50 μM compound): 174
Binding to PPARγ (Fluormone displacement signal) ([4]; 100 μM compound): 170
Binding to PPARγ (Fluormone displacement signal) ([4]; .1 μM compound): 227
Binding to PPARγ (Fluormone displacement signal) ([4]; .3 μM compound): 232
binding to PPARγ (in words) ([4]; FIG. 1 and Table B): particularly poor binders
SMILES: CCc1ccc(C(=O)COc2ccc(CC3SC(=O)NC3=O)cc2)nc1 (stereo not shown) [Compound 1]
Mean blood pressure, Fasted ([1]; 6 hour fast, day 8, oral gavage daily, Compound 1 40 mg/kg/day, HCTZ 5 mg/kg/day): 151
antihypertensive action in combination with HCTZ (in words) ([1]; FIG. 2 and Table C): additive
Mean blood pressure, Fed ([1]; fed, day 7, oral gavage daily, Compound 1 40 mg/kg/day, HCTZ 5 mg/kg/day): 167
blood pressure lowering (in words) ([1]; hypertensive Dahl salt-sensitive rats): significantly lower blood pressure
Adiponectin [2]: 36*
FFA [2]: 0.70*
blood pressure lowering (in words) [3]: significantly lowered blood pressure
Diastolic blood pressure measured by telemetry, Mean [5, 6]: 119
Heart rate measured by telemetry, Mean [5, 6]: 420 bpm
Systolic blood pressure measured by telemetry, Mean [5, 6]: 167
Diastolic blood pressure measured by telemetry, Mean [5, 7]: 117
Heart rate measured by telemetry, Mean [5, 7]: 414 bpm
Systolic blood pressure measured by telemetry, Mean [5, 7]: 167
Diastolic blood pressure measured by telemetry, Mean [5, 8]: 120
Heart rate measured by telemetry, Mean [5, 8]: 406 bpm
Systolic blood pressure measured by telemetry, Mean [5, 8]: 171
Diastolic blood pressure measured by telemetry, Mean [5, 9]: 119
Heart rate measured by telemetry, Mean [5, 9]: 405 bpm
Systolic blood pressure measured by telemetry, Mean [5, 9]: 170
Diastolic blood pressure measured by telemetry, Mean [5, 10]: 122
Heart rate measured by telemetry, Mean [5, 10]: 400 bpm
Systolic blood pressure measured by telemetry, Mean [5, 10]: 173
Diastolic blood pressure measured by telemetry, Mean [5, 11]: 121
Heart rate measured by telemetry, Mean [5, 11]: 395 bpm
Systolic blood pressure measured by telemetry, Mean [5, 11]: 173
Diastolic blood pressure measured by telemetry, Mean [5, 12]: 125
Heart rate measured by telemetry, Mean [5, 12]: 389 bpm
Systolic blood pressure measured by telemetry, Mean [5, 12]: 176
Diastolic blood pressure measured by telemetry, Mean [5, 13]: 128
Heart rate measured by telemetry, Mean [5, 13]: 394 bpm
Systolic blood pressure measured by telemetry, Mean [5, 13]: 180
Diastolic blood pressure measured by telemetry, Mean [5, 14]: 129
Heart rate measured by telemetry, Mean [5, 14]: 388 bpm
Systolic blood pressure measured by telemetry, Mean [5, 14]: 182
Diastolic blood pressure measured by telemetry, Mean [5, 15]: 132
Heart rate measured by telemetry, Mean [5, 15]: 389 bpm
Systolic blood pressure measured by telemetry, Mean [5, 15]: 185
Diastolic blood pressure measured by telemetry, Mean [5, 16]: 132
Heart rate measured by telemetry, Mean [5, 16]: 389 bpm
Systolic blood pressure measured by telemetry, Mean [5, 16]: 184
Diastolic blood pressure measured by telemetry, Mean [5, 17]: 132
Heart rate measured by telemetry, Mean [5, 17]: 391 bpm
Systolic blood pressure measured by telemetry, Mean [5, 17]: 187
Diastolic blood pressure measured by telemetry, Mean [5, 18]: 135
Heart rate measured by telemetry, Mean [5, 18]: 388 bpm
Systolic blood pressure measured by telemetry, Mean [5, 18]: 189
Diastolic blood pressure measured by telemetry, Mean [5, 19]: 135
Heart rate measured by telemetry, Mean [5, 19]: 385 bpm
Systolic blood pressure measured by telemetry, Mean [5, 19]: 192
Diastolic blood pressure measured by telemetry, Mean [5, 20]: 137
Heart rate measured by telemetry, Mean [5, 20]: 390 bpm
Systolic blood pressure measured by telemetry, Mean [5, 20]: 193
Diastolic blood pressure measured by telemetry, Mean [5, 21]: 138
Heart rate measured by telemetry, Mean [5, 21]: 389 bpm
Systolic blood pressure measured by telemetry, Mean [5, 21]: 197
Diastolic blood pressure measured by telemetry, Mean [5, 22]: 141
Heart rate measured by telemetry, Mean [5, 22]: 388 bpm
Systolic blood pressure measured by telemetry, Mean [5, 22]: 195
Diastolic blood pressure measured by telemetry, Mean [5, 23]: 125
Heart rate measured by telemetry, Mean [5, 23]: 393 bpm
Systolic blood pressure measured by telemetry, Mean [5, 23]: 173
Diastolic blood pressure measured by telemetry, Mean [5, 24]: 127
Heart rate measured by telemetry, Mean [5, 24]: 398 bpm
Systolic blood pressure measured by telemetry, Mean [5, 24]: 175
Diastolic blood pressure measured by telemetry, Mean [5, 25]: 123
Heart rate measured by telemetry, Mean [5, 25]: 400 bpm
Systolic blood pressure measured by telemetry, Mean [5, 25]: 170
Diastolic blood pressure measured by telemetry, Mean [5, 26]: 124
Heart rate measured by telemetry, Mean [5, 26]: 406 bpm
Systolic blood pressure measured by telemetry, Mean [5, 26]: 171
effect on heart rate (in words) ([5]; telemetry, Tables F-H): reducing heart rate
reduction of blood pressure compared with rosiglitazone (in words) ([5]; telemetry, Tables F-H): more effective in reducing blood pressure

SMILES: CN(CCOc1ccc(CC2SC(=O)NC2=O)cc1)c1ccccn1 (stereo not shown) [Rosiglitazone, reference compound]
Adiponectin [2]: 36*
FFA [2]: 0.77*
Diastolic blood pressure measured by telemetry, Mean [5, 6]: 119
Heart rate measured by telemetry, Mean [5, 6]: 407 bpm
Diastolic blood pressure measured by telemetry, Mean [5, 7]: 121
Heart rate measured by telemetry, Mean [5, 7]: 402 bpm
Systolic blood pressure measured by telemetry, Mean [5, 7]: 172
Diastolic blood pressure measured by telemetry, Mean [5, 8]: 123
Heart rate measured by telemetry, Mean [5, 8]: 405 bpm
Systolic blood pressure measured by telemetry, Mean [5, 8]: 175
Diastolic blood pressure measured by telemetry, Mean [5, 9]: 124
Heart rate measured by telemetry, Mean [5, 9]: 399 bpm
Systolic blood pressure measured by telemetry, Mean [5, 9]: 177
Diastolic blood pressure measured by telemetry, Mean [5, 10]: 126
Heart rate measured by telemetry, Mean [5, 10]: 398 bpm
Systolic blood pressure measured by telemetry, Mean [5, 10]: 179
Diastolic blood pressure measured by telemetry, Mean [5, 11]: 126
Heart rate measured by telemetry, Mean [5, 11]: 398 bpm
Systolic blood pressure measured by telemetry, Mean [5, 11]: 179
Diastolic blood pressure measured by telemetry, Mean [5, 12]: 131
Heart rate measured by telemetry, Mean [5, 12]: 393 bpm
Systolic blood pressure measured by telemetry, Mean [5, 12]: 184
Diastolic blood pressure measured by telemetry, Mean [5, 13]: 135
Heart rate measured by telemetry, Mean [5, 13]: 401 bpm
Systolic blood pressure measured by telemetry, Mean [5, 13]: 188
Diastolic blood pressure measured by telemetry, Mean [5, 14]: 136
Heart rate measured by telemetry, Mean [5, 14]: 398 bpm
Systolic blood pressure measured by telemetry, Mean [5, 14]: 190
Heart rate measured by telemetry, Mean [5, 15]: 398 bpm
Systolic blood pressure measured by telemetry, Mean [5, 15]: 192
Heart rate measured by telemetry, Mean [5, 16]: 399 bpm
Systolic blood pressure measured by telemetry, Mean [5, 16]: 194
Heart rate measured by telemetry, Mean [5, 17]: 399 bpm
Systolic blood pressure measured by telemetry, Mean [5, 17]: 196
Heart rate measured by telemetry, Mean [5, 18]: 395 bpm
Systolic blood pressure measured by telemetry, Mean [5, 18]: 196
Heart rate measured by telemetry, Mean [5, 19]: 393 bpm
Systolic blood pressure measured by telemetry, Mean [5, 19]: 198
Heart rate measured by telemetry, Mean [5, 20]: 398 bpm
Systolic blood pressure measured by telemetry, Mean [5, 20]: 202
Heart rate measured by telemetry, Mean [5, 21]: 401 bpm
Systolic blood pressure measured by telemetry, Mean [5, 21]: 204
Heart rate measured by telemetry, Mean [5, 22]: 402 bpm
Systolic blood pressure measured by telemetry, Mean [5, 22]: 204
Diastolic blood pressure measured by telemetry, Mean [5, 23]: 124
Heart rate measured by telemetry, Mean [5, 23]: 395 bpm
Systolic blood pressure measured by telemetry, Mean [5, 23]: 173
Diastolic blood pressure measured by telemetry, Mean [5, 24]: 127
Heart rate measured by telemetry, Mean [5, 24]: 394 bpm
Systolic blood pressure measured by telemetry, Mean [5, 24]: 176
Diastolic blood pressure measured by telemetry, Mean [5, 25]: 124
Heart rate measured by telemetry, Mean [5, 25]: 400 bpm
Systolic blood pressure measured by telemetry, Mean [5, 25]: 171
Diastolic blood pressure measured by telemetry, Mean [5, 26]: 124
Heart rate measured by telemetry, Mean [5, 26]: 403 bpm
Systolic blood pressure measured by telemetry, Mean [5, 26]: 174
